According to US7335770B2, “Triazine compounds and their analogs, compositions, and methods” (Reddy U5 Therapeutics, Inc., priority 2004, dated 2008):
Counter-ions that a name gives are not always drawn.

Legend:
Format in all cases: cell-based
IL6 = assay: inhibition of TNF-induced IL6 production
MCP1 = assay: inhibition of TNF-induced MCP1; conditions: for IC50: in vitro
Method: (§1) The activity of the compounds of the present invention in inhibiting glycated protein- and AGE-induced inflammation can be determined using the assays described herein and in U.S. patent application Ser. No. 10/026,335, which is herein incorporated in its entirety. Such assays comprise measurement of the specific activity of biological components involved in a known cellular response. The assays provide a measurable response in which the activity of the compounds is determined. One assay comprises measurement of the effects of compounds on an inflammatory response by cells to the presence of a stimulating agent. Yet another assay comprises endothelial cells that are stimulated by the addition of a glycated protein, the stimulating agent. The endothelial cells respond by producing specific cytokines. The amount of cytokines produced are determined by measurement protocols known to those skilled in the art. The compounds of the present invention are then added to the assay and the production of cytokines is measured. From the comparison of the assay without the compound with the assay with the compound, the biological effect of the compound can be determined. The compound may have an inhibitory effect, a stimulatory effect, or no effect at all.
The amount and type of cytokine produced can be determined using immunological methods, such as ELISA assays. The methods of the present invention are not limited by the type of assay used to measure the amount of cytokine produced, and any methods known to those skilled in the art and later developed can be used to measure the amount of cytokines produced in response to the stimulating agent and to the compound having unknown activity.
(§2) Assays for determining the activity of compounds capable of modulating inflammation include those taught in U.S. patent application Ser. No. 10/026,335 and 09/969,013, which are both expressly incorporated by reference. In general, once the baseline response to the stimulating agent for the production of cytokines by the endothelial cells is established, thus comprising the control levels for the screening assay, the methods comprise addition of compounds of the present invention. The effect of the compound on the baseline response is determined by comparing the amount of cytokine produced in the presence of the stimulating agent and the amount of cytokine produced in the presence of the stimulating agent and the compound of the present invention. In a preferred method, compounds that have inhibitory effects on the inflammation of the cells in the presence of glycated albumin are then used as therapeutic agents. One or more compounds may be added to the screening assay. Combinations or mixtures of compounds can be added. Different amounts and formulations of the compounds are added to determine the effects on the screening assay. The screening assay may also be used to determine stimulatory compounds or compounds that have no effects in the assay.

VCAM1 = assay: inhibition of TNF-induced VCAM1; conditions: for IC50: in vitro
Method: as §1
An aspect of the present invention comprises methods and compositions for the treatment of diseases, preconditions or pathologies associated with inflammatory cytokines and other inflammation related molecules including, but not limited to IL-6, VCAM-1, AGE-induced MCP-1, (monocyte chemoattractant protein 1), heme oxygenase, insulin-like growth factor, selectins, IP-10, MIG and I-TAC, NF-κB, IL-1β (interleukin 1β), IL-11 (interleukin 11), m-CSF (macrophage colony stimulating factor), fibrinogen, TNF-α (tumor necrosis factor α), adhesion molecules, selecting, VCAM-1 (Vascular Cell Adhesion Molecule-1), CRP (C-reactive protein), and PAI-1 (plasminogen activator inhibitor-1). Examples of such diseases include the pathogenesis of atherosclerosis and the development of diabetic vasculopathy in type II diabetes. For example, affecting the activity or level of TNFα is a key mediator of tissue damage following acute or chronic inflammatory reactions. The present invention contemplates providing compositions and methods that modulate the effects of cytokines and inflammatory molecules such as TNFα, IL-6, VCAM-1, IP-10, MIG, I-TAC and AGE-induced MCP-1, and treat the associated diseases, acute or chronic conditions, preconditions and pathologies.
as §2

IC50 (MCP1) [µM] | IC50 (VCAM1) [µM] | SMILES | other results
 |  | CN1CCC(N(C)c2nc(Nc3cccc(F)c3)nc(NC3CCCCCC3)n2)CC1 [drawing 612, N-Cyclo-heptyl-N′-(3-fluoro-phenyl)-N″-meth-yl-N″-(1-methyl-piperidin-4-yl)-[1,3,5]tri-azine-2,4,6-triamine] | IC50 (IL6; given as '50% at x μM', read-out: Inhibition of TNF-induced IL6 production: concentration giving 50% inhibition): 3.2 µM
 |  | CCN1CCCC1CNc1nc(Nc2ccc(OC)c(F)c2)nc(N2CCN(CC(=O)N3CCCC3)CC2)n1 (centres unmarked) [drawing 613, 2-{4-[4-[(1-Ethyl-pyrrolidin-2-ylmethyl)-amino]-6-(3-fluoro-4-meth-oxy-phenylamino)-[1,3,5tri-azin-2-yl]-pipera-zin-1-yl}-1-pyrrolidin-1-yl-eth-anone dihydrogen chloride salt] | inhibition at 10 µM (IL6; at 10 μM): 42%
3 | 2.5 | COc1ccc(Nc2nc(NC3CCCCCC3)nc(OCC3CCCN3C)n2)cc1Cl (centres unmarked) [drawing 614] | 
4.3 | 4.5 | COc1ccc(Nc2nc(NC3CCCCCC3)nc(OC3CCN(C)CC3)n2)cc1Cl [drawing 615] | 
4.6 | 5.2 | COc1ccc(Nc2nc(NC3CCCCCC3)nc(OC3CCCN(C(C)=O)C3)n2)cc1Cl (centres unmarked) [drawing 617] | 
3.7 | 7 | COc1ccc(Nc2nc(NC3CCCCCC3)nc(Oc3ccc(C#CC(C)(C)O)cc3)n2)cc1Cl [drawing 620] | 
6.5 | 7 | COc1ccc(Nc2nc(NC3CCCCCC3)nc(Oc3ccccc3C#CC(C)(C)O)n2)cc1Cl [drawing 621] | 
4.2 | 6 | CCN1CCCC(Oc2nc(Nc3ccc(OC)c(Cl)c3)nc(NC3CCCCCC3)n2)C1 (centres unmarked) [drawing 622] | 
6 | 5.2 | COc1ccc(Nc2nc(NC3CCCCCC3)nc(Oc3ccc(C=O)cc3)n2)cc1Cl [drawing 623] | 
3 | 5.7 | COc1ccc(Nc2nc(NC(C)C)nc(Oc3ccc(C#CC(C)(C)O)cc3)n2)cc1Cl [drawing 627] | 
 |  | COc1ccc(Nc2nc(NC3CCCCCC3)nc(Sc3c(Cl)cccc3Cl)n2)cc1Cl [drawing 631] | inhibition at 10 µM (MCP1; @ 10 uM concentration, read-out: TNF-induced MCP1, In-vitro % of inhibition): 11%; inhibition at 10 µM (VCAM1; @ 10 uM concentration, read-out: TNF-induced VCAM1, In-vitro % of inhibition): 6%
